The values below come from patent publication US20030148954A1, “Agents and methods for modulating activator protein-1-mediated cellular processes” (Wisconsin Alumni Research Foundation, priority 2001, published 2003).

In one assay the test system is CSL (CBF1). Kind of assay: CSL-dependent (p4×CBF1luc) luciferase reporter, transient transfection of K562 cells. Type of assay: cell-based, human. The source says:
Plasmids—The pBabe-NIC-1 (pNIC-1) expression vector encoding constitutively active Notch-1 (NIC-1) was described previously (36,37,51). This vector was derived from the pBabe-puro retroviral vector and includes a cDNA sequence encoding amino acids 1759-2556 of human Notch-1 with a Myc tag fused to its carboxyl terminus. Human NIC-1 deletion mutants were generated by PCR using a full-length human Notch-1 expression vector as the template. The Notch-dependent reporter plasmid containing four CBF1 binding sites and an simian virus 40 promoter fused to luciferase (p4×CBF1luc) was described previously (52). The AP-1 reporter plasmid (p1×AP1luc) containing a collagenase promoter fragment (−73/+67) with a single AP-1 binding site in the luciferase reporter vector pGL2-basic (Promega) was described previously (53). The NF-κB reporter plasmid (p3×κBluc) containing three NF-κB binding sites and a minimal promoter fused to luciferase was a kind gift of Dr. Shigeki Miyamoto (University of Wisconsin Medical School). […]
For each transfection, cells were incubated for 26 h after transfection and then treated with TPA (final concentration: 5 nM) or the vehicle (DMSO). […] Luciferase activity was normalized by the protein content of the lysates, determined by Bradford assay using γ-globulin as a standard.

In the next assay the test system is human Aγ globin promoter. Kind of assay: pGL3γLuc reporter, transient transfection of K562 cells. Type of assay: cell-based. The protocol: Transient Transfections—K562 cells (5×10^5) were collected by centrifugation at 240×g for 8 min at 4° C. and resuspended in 4 ml of complete IMEM. Plasmid DNAs (1 μg of reporter and 2 μg of effector) were added to 150 μl of IMEM, incubated with Superfect (4 μl/1 μg DNA; Qiagen) for 10 min at room temperature and then added to cells.
For each transfection, cells were incubated for 26 h after transfection and then treated with TPA (final concentration: 5 nM) or the vehicle (DMSO). After incubating for another 12 or 16 h, cells were harvested and assayed for luciferase activity. Luciferase activity was normalized by the protein content of the lysates, determined by Bradford assay using γ-globulin as a standard.

Another assay has as its system AP-1. Kind of assay: EMSA of AP-1 DNA binding activity in nuclear extracts. The arrangement: species or system human. As to conditions: 5 nM TPA 2 hours, nuclear extracts. The protocol:
K562-Babe and K562-NIC-1 cells were harvested by centrifugation for 10 min at 150×g. Cells were washed once with ice-cold PBS and resuspended in 1.5 volumes of nuclei lysis buffer (10 mM Tris-HCl, pH 7.5, 10 mM NaCl, 3 mM MgCl2, and 0.2% Nonidet P-40) on ice for 3 min. Nuclei were collected by centrifugation for 5 min at 600×g. Nuclei were washed by gentle resuspension in 1.5 volumes of nuclei wash buffer (10 mM Tris-HCl, pH 7.5, 10 mM NaCl, and 3 mM MgCl2) and then collected by centrifugation for 4 min at 600×g. […] Nuclei were extracted for 45 min at 4° C. with constant mixing. The suspension was then centrifuged for 30 min at 150,000×g. Aliquots of the supernatant were frozen on dry ice and stored at -80° C. The protein concentration as measured by the Bradford assay, with y-globulin as a standard ranged from 4 to 10 mg/ml. DTT (5 mM), phenylmethanesulfonyl fluoride (0.5 mM), leupeptin (20 μg/ml), β-glycerophosphate (800 μM), sodium vanadate (1 mM), and sodium molybdate (50 μM) were included in all buffers. Electrophoretic Mobility Shift Assay-EMSA assays were done as described previously (54). AP-1 DNA binding activity was measured by EMSA with a double-stranded end-labeled oligonucleotide [NT] containing a high affinity AP-1 binding site. […] DNA binding activity was quantitated by PhosphorImager analysis with ImageQuant software (Molecular Dynamics).

Another assay concerns c-Jun. Kind of assay: Western blot of c-Jun protein and c-Jun phosphorylation. The class given is cell-based, human. The protocol:
Stable Transfection—K562 cells were stably transfected by electroporation with a Bio-Rad Gene pulser electroporator. Cells (5×10^6) were washed with ice-cold PBS, resuspended in 0.5 ml of ice-cold PBS, mixed with 5 μg linearized plasmid DNA, and subjected to electroporation (960 microfarad; 220 V) in a 0.4 cm-wide electroporation cuvette (BTX). pBabe and pNIC-1 were linearized with NotI. Cells were then added to 20 ml of complete IMEM, grown for 48 h, and diluted in complete IMEM containing 1.5 μg/ml puromycin (pools of K562-Babe and K562-NIC-1 cells). Stably transfected cells were analyzed for erythroid differentiation as soon as the pools were generated by benzidine staining to reduce the probability of phenotypic changes that may result from prolonged growth.
Cells were washed once with ice-cold PBS, cell pellets were resuspended in 30 μl ice-cold PBS and were immediately boiled in 70 μl SDS sample buffer for 10 min. Proteins (10 μl) were resolved by SDS-PAGE on a 10% acrylamide gel and transferred to Immobilon P membrane (Millipore). After blocking membranes in 5% nonfat dry milk in TBST (10 mM Tris pH 8.0, 150 mM NaCl, 0.3% Tween-20), membranes were incubated with primary antibody (diluted 1:1000 in dry milk/TBST). […] Antigen-antibody complexes were detected with ECL Plus™ (Amersham Life Science) according to manufacturer's instructions.

“NIC-1: constitutively active Notch-1 intracellular domain, amino acids 1759-2556 of human Notch-1 with carboxyl-terminal Myc tag, expressed from pBabe-NIC-1”: the “activation of CSL-dependent reporter activity” value in the assay on CSL (CBF1) is “strongly activated”. In addition, the “effect on TPA-induced activity of pGL3γLuc” value in the assay with human Aγ globin promoter (K562, TPA-induced) is reported as “without affecting”. The “increase of basal activity of pGL3γLuc” value with human Aγ globin promoter (K562, basal) is on record as roughly 80%. Also, the “AP-1 complexes formed with extracts from K562-NIC-1 versus K562-Babe cells” value in the assay with AP-1 is reported as “no apparent qualitative or quantitative differences”. The “effect on time-dependent induction of phosphorylation of c-Jun (serine 73) and JunD” value in the assay on c-Jun (5 nM TPA for 0, 5, 10, or 20 min) is listed as “no effect”. In the assay on c-Jun (K562-NIC-1 versus K562-Babe), the “effect on c-Jun protein levels” value is “did not affect”.
